In US20090209615A1, “INHIBITORS OF MATRIX METALLOPROTEINASES TO TREAT NEUROLOGICAL DISORDERS” (priority 2004, published 2009):
“Also recorded” adds a separate entry of the source. Like-named read-outs stand apart in the source and are kept apart here.

Key:
[1] = system: MMP gelatinolytic activity in the ischemic cortex; assay: In situ zymography of ischemic brain sections treated with MMP inhibitors; type: biochemical, mouse; settings: brain sections after MCA occlusion/reperfusion treated with inhibitor
Method: In situ zymography with the MMP fluorogenic substrate DQ-gelatin-FITC (Molecular Probes) was performed on fresh cryostat sections of mouse brains harvested after MCA ischemia and reperfusion (A to J). […] A, C, E, and G represent fluorogenic substrate (green), reflecting MMP activity in situ. B, D, F, H, I, and J are merged images of the fluorogenic substrate and Hoechst dye counterstaining to identify nuclei.
A, In situ zymography with the MMP fluorogenic substrate DQ-gel (green in top panels) merged with nuclear DNA staining by Hoechst dye (blue plus green in bottom panels).

MMP-9 [2] = assay: MMP-9 activity in ischemic mouse brain after treatment in vivo (in situ zymography, gelatin zymography, Western blot); design: species or system C57BL/6J mice
laminin = assay: Laminin degradation in the ischemic hemisphere after MCAO/R (Western blot, immunostaining); type: in vivo, mouse; settings: for laminin degradation in the ischemic hemisphere (Western blot, 51 kDa fragment): SB-3CT-treated mice after transient MCAO/R
MMP-9 [3] = biological target: T1, MMP-9 (Mus musculus, UniProt P41245); assay: MMP-9 activity in ischemic mouse brain after treatment in vivo (in situ zymography, gelatin zymography, Western blot); design: species or system C57BL/6J mice; settings: SB-3CT-treated mice, 2-hr MCA occlusion and 24-hr reperfusion
T1 construct: from tissue; host or cells: brain of C57BL/6J mice after MCA occlusion/reperfusion

[4] = system: C57BL/6J mice, MCA occlusion/reperfusion; assay: Transient focal cerebral ischemia (MCA occlusion/reperfusion): infarct volume and neurological deficits; type: in vivo
[5] = Physiological variables and regional cerebral blood flow in MCAO mice; settings: for Ca^2+ / Glucose / MABP / Na^+ / PCO2 / PO2 / pH: mean ± SEM (n = 5); for regional cerebral blood flow (rCBF), laser Doppler flowmetry: MCAO and reperfusion; for pH: arterial blood
cerebrocortical neurons = assay: Neuronal apoptosis induced by SNOC-activated MMP-9 in cerebrocortical cultures; type: cell-based; settings: R-proMMP-9 pre-activated by SNOC, 18 hours
MMP-9 [6] = biological target: T2, MMP-9 (Homo sapiens, UniProt P14780); assay: Ex vivo degradation of neuronal laminin by exogenous MMP-9 in mouse-brain sections; type: biochemical
Target sequence in this assay (P14780 107-707 limits assumed, species assumed): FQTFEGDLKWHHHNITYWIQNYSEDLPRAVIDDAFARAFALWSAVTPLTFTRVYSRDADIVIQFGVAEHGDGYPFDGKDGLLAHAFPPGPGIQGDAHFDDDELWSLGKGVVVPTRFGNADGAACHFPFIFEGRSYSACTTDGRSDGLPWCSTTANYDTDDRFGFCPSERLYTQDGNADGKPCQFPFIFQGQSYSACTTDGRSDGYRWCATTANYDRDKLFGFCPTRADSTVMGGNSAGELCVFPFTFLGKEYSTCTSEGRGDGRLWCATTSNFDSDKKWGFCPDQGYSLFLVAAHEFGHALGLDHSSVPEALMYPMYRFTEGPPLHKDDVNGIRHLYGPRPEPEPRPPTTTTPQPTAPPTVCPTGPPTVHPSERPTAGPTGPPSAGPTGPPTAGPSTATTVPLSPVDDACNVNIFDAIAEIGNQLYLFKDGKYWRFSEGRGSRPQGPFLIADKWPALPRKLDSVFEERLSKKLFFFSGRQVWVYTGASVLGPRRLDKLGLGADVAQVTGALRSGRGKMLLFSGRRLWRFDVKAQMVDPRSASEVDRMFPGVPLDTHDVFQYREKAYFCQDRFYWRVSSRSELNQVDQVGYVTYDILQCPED
Method: Purified mouse Engelbreth-Holm-Swarm laminin (ms EHS Ln) served as a molecular marker for laminin immunoblotting. The membrane was reblotted with anti-actin antibody to ensure equal protein loading in each lane.
Ex vivo laminin degradation and Western blots. Brain lysates (50 mg of total protein in TBS with 0.05% Brij 35) were incubated overnight at 37° C. with activated MMP-9, latent preform of MMP-9 (proMMP-9), or the catalytic domain of membrane type 1 (MT1)-MMP. […] Laminin and MMP-9 were analyzed by immunoblotting using rabbit pan-laminin (pan-Ln) and MMP-9 antibodies (from Sigma (St. Louis, Mo.) and Calbiochem (La Jolla, Calif.), respectively), followed by peroxidase-conjugated anti-rabbit IgG antibody. Peroxidase was visualized by enhanced chemiluminescence (Amersham Biosciences).

R-proMMP-9 = R-proMMP-9 (Homo sapiens, UniProt P14780); assay: Activation of R-proMMP-9 in vitro (gelatin zymography, fluorogenic peptide cleavage)
Sequence of R-proMMP-9 (P14780 20-444 limits assumed): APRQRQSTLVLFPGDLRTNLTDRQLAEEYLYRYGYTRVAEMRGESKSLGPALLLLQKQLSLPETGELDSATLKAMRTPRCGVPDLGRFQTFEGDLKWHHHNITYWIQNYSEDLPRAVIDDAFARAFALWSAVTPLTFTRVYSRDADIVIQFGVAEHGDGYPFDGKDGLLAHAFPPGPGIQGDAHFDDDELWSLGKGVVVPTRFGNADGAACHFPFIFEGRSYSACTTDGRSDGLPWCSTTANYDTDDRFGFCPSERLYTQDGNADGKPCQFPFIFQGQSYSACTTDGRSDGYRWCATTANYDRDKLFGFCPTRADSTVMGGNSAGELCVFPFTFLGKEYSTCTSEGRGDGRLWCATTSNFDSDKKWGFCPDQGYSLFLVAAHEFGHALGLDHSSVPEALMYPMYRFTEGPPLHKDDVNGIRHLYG

[7] = Stability of S-nitrosothiols (NAT conversion from DAN)
MMP-9 [8] = biological target: T2, MMP-9; settings: high-affinity site for TIMPs, Olson et al. 1997; cited from earlier work
Target sequence in this assay (P14780 107-707 limits assumed): as the sequence (P14780 107-707 limits assumed, species assumed) above

MMP-2 = biological target: T3, MMP-2 (Homo sapiens, UniProt P08253); settings: high-affinity site for TIMPs, Olson et al. 1997; cited from earlier work
T3 sequence (P08253 110-660): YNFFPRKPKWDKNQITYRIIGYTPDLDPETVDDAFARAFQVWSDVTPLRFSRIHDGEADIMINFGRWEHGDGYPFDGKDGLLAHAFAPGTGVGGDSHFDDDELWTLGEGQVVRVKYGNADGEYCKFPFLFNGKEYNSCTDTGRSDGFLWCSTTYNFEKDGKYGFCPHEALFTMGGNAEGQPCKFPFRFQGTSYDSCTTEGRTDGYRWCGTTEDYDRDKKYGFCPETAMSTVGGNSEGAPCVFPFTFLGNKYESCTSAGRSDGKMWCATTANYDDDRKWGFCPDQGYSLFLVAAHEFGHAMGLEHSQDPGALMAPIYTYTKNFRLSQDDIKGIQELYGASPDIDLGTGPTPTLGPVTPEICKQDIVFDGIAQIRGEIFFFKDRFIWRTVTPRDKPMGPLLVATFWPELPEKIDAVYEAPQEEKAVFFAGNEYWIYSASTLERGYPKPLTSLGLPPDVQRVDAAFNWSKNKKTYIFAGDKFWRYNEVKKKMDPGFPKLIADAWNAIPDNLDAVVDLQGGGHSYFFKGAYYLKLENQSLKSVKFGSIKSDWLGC

c1cnc2c(c1)ccc1cccnc12 [1,10-phenanthroline]
MMP gelatinolytic activity in the ischemic cortex (in situ zymography) [1]: reduced; also recorded: abrogated
MMP gelatinolytic activity in the ischemic cortex (in situ zymography) ([1]; listed as 1/10-phenanthroline): can prevent activation of MMP-9

O=[N+]([O-])c1cccc2c(Br)n[nH]c12 [3-bromo-7-nitroindazole, reference compound]
MMP activity in the ischemic cortex (in situ zymography) (MMP-9 [2]; 30 mg/kg body weight i.p. prior to ischemia, wild-type mice): abrogated
laminin degradation in the ischemic cortex (laminin immunoreactivity) (laminin; wild-type mice treated with nNOS inhibitor, after MCA occlusion/reperfusion): attenuated; also recorded: blockage of laminin degradation

O=S(=O)(CC1CS1)c1ccc(Oc2ccccc2)cc1 (stereo not shown) [Compound 1, (4-Phenoxyphenylsulfonyl)methylthiirane]
MMP gelatinolytic activity in the ischemic region (in situ zymography, deconvolution microscopy) (MMP-9 [2]; SB-3CT-treated mice vs vehicle-treated control, after MCAO/reperfusion): significantly reduced
active MMP-9 in ischemic brain (gelatin zymography, Western blot) (MMP-9 [3]; listed as SB3CT): attenuated the increase; also recorded: can prevent activation of MMP-9
proMMP-9 in ischemic brain (gelatin zymography, Western blot) (MMP-9 [3]; listed as SB3CT): attenuated the increase
active MMP-9 in ischemic brain (gelatin zymography, Western blot) (MMP-9 [3]; listed as SB-3CT): attenuated the increase; also recorded: significantly decreased
proMMP-9 in ischemic brain (gelatin zymography, Western blot) (MMP-9 [3]; listed as SB-3CT): attenuated the increase; also recorded: also decreased
infarct volume (TTC staining) ([4]; 25 mg/kg i.p. twice, 30 minutes before MCAO and 2 hours after MCAO, 2-hour MCAO, 24-hour reperfusion, vs vehicle, P<0.004 (FIG. 9), listed as SB3CT): decreases infarct volume; also recorded: protects the ischemic brain
infarct volume (TTC staining) ([4]; 25 mg/kg i.p., 24 h after reperfusion, vs vehicle-treated controls, p<0.001 (FIG. 14C)): decreased infarct volume
infarct volume ([4]; 25 mg/kg i.p., administration 6 h after ischemia, compared with 55% in vehicle-treated animals): 40%
infarct volume ([4]; 25 mg/kg i.p., first injection 2 h postischemic, second 3 h later, 24 h after reperfusion): 30 % of control
infarct volume ([4]; 25 mg/kg i.p., preischemic injection (30 min before ischemia, second immediately before reperfusion), 24 h after reperfusion): 30 % of control
neurological behavioral score ([4]; 24 h after MCA occlusion/reperfusion, vs vehicle-treated controls, p<0.02 (FIG. 14D)): significantly improved neurological function
neurological behavioral outcomes (deficit score 0-4) ([4]; 24 hours after focal MCAO and reperfusion, vs vehicle, P<0.01 (FIG. 9C), listed as SB3CT): significantly reduced neurological deficit outcomes; also recorded: improved
behavioral scores (five-point scale) ([4]; treated 2 h after ischemia, 24 h after reperfusion): significant improvement in behavioral scores
behavioral scores (five-point scale) ([4]; treated before ischemia, 24 h after reperfusion): significant improvement in behavioral scores
laminin degradation in the ischemic hemisphere (Western blot, 51 kDa fragment) (laminin; listed as SB3CT): attenuated laminin degradation products
laminin degradation in the ischemic hemisphere (Western blot, 51 kDa fragment) (laminin; listed as SB-3CT): decreased laminin degradation; also recorded: reduced
Ca^2+ ([5]; After MCAO): 1.100 ± 0.074 mmol/L
Glucose ([5]; After MCAO): 154.3 ± 12.6 mg/dL
MABP ([5]; After MCAO): 76.12 ± 2.89 mmHg
Na^+ ([5]; After MCAO): 157.7 ± 2.0 mmol/L
PCO2 ([5]; After MCAO): 43.90 ± 5.28 mmHg
PO2 ([5]; After MCAO): 245.4 ± 24.0 mmHg
Ca^2+ ([5]; Before MCAO): 1.150 ± 0.021 mmol/L
Glucose ([5]; Before MCAO): 160.7 ± 13.2 mg/dL
MABP ([5]; Before MCAO): 78.68 ± 3.17 mmHg
Na^+ ([5]; Before MCAO): 155.7 ± 1.8 mmol/L
PCO2 ([5]; Before MCAO): 40.70 ± 7.828 mmHg
PO2 ([5]; Before MCAO): 230.8 ± 31.7 mmHg
Ca^2+ ([5]; During MCAO): 1.117 ± 0.081 mmol/L
Glucose ([5]; During MCAO): 162.70 ± 13.3 mg/dL
MABP ([5]; During MCAO): 79.49 ± 3.48 mmHg
Na^+ ([5]; During MCAO): 157.20 ± 0.5 mmol/L
PCO2 ([5]; During MCAO): 44.95 ± 14.55 mmHg
PO2 ([5]; During MCAO): 214.5 ± 10.3 mmHg
regional cerebral blood flow (rCBF), laser Doppler flowmetry ([5]; vs vehicle-treated controls, listed as SB3CT): no significant differences; also recorded: unaffected
regional cerebral blood flow (rCBF), laser Doppler flowmetry ([5]; vs vehicle-treated controls, listed as SB-3CT): no significant differences
pH ([5]; After MCAO): 7.170 ± 0.027
pH ([5]; Before MCAO): 7.313 ± 0.060
pH ([5]; During MCAO): 7.106 ± 0.025
physiological parameters including arterial blood gases and glucose ([5]; vs vehicle-treated controls): did not affect

O=S(=O)(CCC1CO1)c1ccc(Oc2ccccc2)cc1 (stereo not shown) [Compound 5, 2-(4-Phenoxyphenylsulfonyl)ethyloxirane]
melting point: 75 to 77 °C

CNC(=O)[C@H](Cc1c[nH]c2ccccc12)NC(=O)[C@@H](CC(=O)NO)CC(C)C [GM6001]
MMP gelatinolytic activity in the ischemic cortex (in situ zymography) [1]: reduced; also recorded: abrogated; also recorded: can prevent activation of MMP-9
neuronal apoptosis (cerebrocortical neurons): abrogated the effect; also recorded: blocked the neuronal cell death
degradation of neuronal laminin by activated MMP-9 (MMP-9 [6]): significantly reduced laminin degradation; also recorded: inhibited MMP-9 proteolysis of neuronal laminin

N[C@@H](CSN=O)C(=O)O [SNOC, S-nitrosocysteine]
conversion of R-proMMP-9 into the activated form (gelatin zymography) (R-proMMP-9; R-proMMP-9 100 ng/ml, 200 μM agent, 18 hours, room temperature): partial conversion
initial velocity of R-proMMP-9 activation (R-proMMP-9; cleavage of synthetic fluorogenic peptide substrate): 0.88 µM/h
half-life at 200 μM [7]: < 10 min
decayed ([7]; within 15 min of incubation): over 95%

O=NO [acidified sodium nitrite, sodium nitrite]
conversion of R-proMMP-9 into the activated form (gelatin zymography) (R-proMMP-9): partial conversion

TIMP-1: endogenous cellular protein inhibitor of MMPs (tissue inhibitor of metalloproteinases)
Ki (MMP-9 [8]): 24 ± 4 nM
Ki (MMP-2): 29 ± 5 nM
